Measured values from patent US20180360799A1, “Nitrofuran Derivatives That Induce Apoptosis in Breast Cancer Cells by Activating Protein Expression” (Oklahoma Medical Research Foundation, priority 2015, published 2018).

Columns and labels:
Format in all cases: cell-based, human
[1] = system: UPRE-Luciferase (UPRE-Luc) reporter; experiment: UPRE-Luc reporter assay in HEK293 cells; details: 3d 10 μM or Tm 1 μg/mL, 24 h
Procedure: FIG. 3G is a graph showing HEK293 cells stably expressing CHOP-Luc, ERSE-Luc, or UPRE-luc reporters were treated with DMSO, a 5-nitrofuran-2-amide derivative, or tunicamycin. HEK293 cells stably expressing CHOP-Luc, ERSE-Luc, or UPRE-luc reporters were treated with DMSO, compound 3d (10 μM), or Tm (1 μg/mL) for 24 h, and luciferase activity was measured using the Bright-Glo assay. Results are the means of 4 replicate wells and are representative of 3 independent experiments.
The inventor next asked whether the IRE1α and ATF6 branches of the unfolded protein response were also activated by compound 3d treatment of TNBC cells. […] XBP1 mRNA splicing, as measured by XBP1s levels, increased only slightly in the first 24 h after compound 3d treatment of HCC-1806 cells (from 11% of total XBP1 at 0 h to 15˜20% at 2˜24 h). […] Next, it was determined whether compound 3d activates the ATF6 pathway by evaluating its effect on the activity of an ER stress response elements (ERSE)-Luc reporter stably established in HEK293 cell line.
The HEK293T CHOP reporter cell line (CHOP-Luc) was previously described.^21 HEK293T cells were stably transfected with ERSE-Luciferase^25 and UPRE-Luciferase^23 reporters to generate ERSE-Luc and UPRE-Luc reporter cell lines, respectively. […] Luciferase activity was measured with a Bright-Glo kit 24 h later.

ATF4 mRNA = ATF4 mRNA by qRT-PCR; details: 10 μM, indicated times
Description: Results are the means of 4 replicate wells and are representative of 3 independent studies. *P<0.05 by Student's t-test compared with DMSO-treated cells. Prolonged or severe ER stress activates CHOP expression primarily through the PERK branch of the unfolded protein response, although the IRE1α and ATF6 branches also contribute.^5, 18 The 5-nitrofuran-2-amide derivatives could induce CHOP expression by acting as an ER stressor that activates all three branches of unfolded protein response or by preferentially activating a select branch of unfolded protein response. To distinguish between these possibilities, the inventor investigated which branches of the unfolded protein response were affected by compound 3d. […] Total RNA was extracted using TRIzol reagent (Invitrogen, Carlsbad, Calif.) according to the manufacturer's protocol, and 2 μg of total RNA was reverse transcribed using a Superscript kit (Invitrogen). Real-time PCR was performed in 96-well format using SYBR Select Master Mix (Applied Biosystems, Foster City, Calif.) with an ABI 7500 PCR system (Applied Biosystems). The primer sequences used were: Human CHOP: SEQ ID NO: 1 [NT] and SEQ ID NO: 2 [NT]. Human ATF4: SEQ ID NO: 3 [NT] and SEQ ID NO: 4 [NT]. Human XBP1: SEQ ID NO: 5 [NT] and SEQ ID NO: 6 [NT]. Human Cyclophilin A: SEQ ID NO: 7 [NT] and SEQ ID NO: 8 [NT]. Human GAPDH: SEQ ID NO: 9 [NT] and SEQ ID NO: 10 [NT].

ATF4 protein = ATF4 protein by Western blotting; details: 10 μM, indicated times
Procedure: FIG. 3D is an image showing ATF4 and p-EIF2α protein levels after treatment with a 5-nitrofuran-2-amide derivative compound 3d. Cells were treated with compound 3d (10 μM) for the indicated times, and ATF4 and p-eIF2a protein levels were analyzed by Western blotting. α-Tubulin was used as a loading control. The data shown are representative of 3 independent studies.
Prolonged or severe ER stress activates CHOP expression primarily through the PERK branch of the unfolded protein response, although the IRE1α and ATF6 branches also contribute.^5, 18 The 5-nitrofuran-2-amide derivatives could induce CHOP expression by acting as an ER stressor that activates all three branches of unfolded protein response or by preferentially activating a select branch of unfolded protein response. To distinguish between these possibilities, the inventor investigated which branches of the unfolded protein response were affected by compound 3d. Activation of the PERK pathway by ER stress leads to phosphorylation of eIF2α, followed by activation of the transcription and translation of the transcription factor ATF4, a 5′-upstream ORF-containing gene, and ATF4-mediated CHOP expression.^5, 22 To determine whether the PERK pathway is involved in compound 3d-mediated CHOP induction, ATF4 expression and eIF2a phosphorylation in HCC-1806 cells by qRT-PCR and Western blotting were analyzed. […]

Compound: CC1CCN(c2ccc(NC(=O)c3ccc([N+](=O)[O-])o3)cc2)CC1 [Compound 3d]
- increase of UPRE-Luc luciferase activity [1]: less than 2 fold
- ATF4 expression, mRNA (ATF4 mRNA): significantly increased ATF4 expression
- ATF4 expression, protein (ATF4 protein): significantly increased ATF4 expression
